# Values quoted from earlier work as cited in patent US20070269404A1, “Controlling Sugar Feeding Insects” (Westham Ltd., priority 2006, published 2007).
# Tested on: birds and mammals
# Conditions: Williams et al. 2003
substance,measurement,value
Spinosad,toxicity to birds and mammals,very little toxicity
